{"source": "patent US7169787B2", "about": "“7-azaindoles, use thereof as phosphodiesterase 4 inhibitors and method for producing the same” (Elbion AG, priority 2000, dated 2007)", "key": {"[1]": {"test_system": "release of TNFα from cells of nasal polyps", "assay": "Inhibition of the release of TNFα from cells of nasal polyps (anti-IgE stimulated, ELISA)", "type": "cell-based", "conditions": "Homo sapiens, anti-IgE stimulated nasal polyp cells", "procedure": "The experimental arrangement corresponds essentially to the method described by Campbell, A. M. and J. Bousquet (Anti-allergic activity of H1-blockers, Int. Arch. Allergy Immunol., 1993, 101, 308–310). Nasal polyps form the starting material (material from patients, who had been subjected to a surgical treatment).\nThe tissue is washed with RPMI 1640 and subsequently digested with protease (2.0 mg/mL), collagenase (1.5 mg/mL), hyaluronidase (0.75 mg/mL), and DNAse (0.05 mg/mL) for two hours at 37° C. (1 g of tissue and 4 mL of RPMI 1640 with enzymes). The cells obtained, a mixture of epithelial cells, monocytes, macrophages, lymphocytes, fibroblasts and granulocytes, are filtered and washed by being centrifuged repeatedly in culture solution and sensitized passively by the addition of human IgE and the cell suspension is brought to a concentration of 2 million cells/mL in RPMI 1640 (supplemented by antibiotics, 10% fetal calf serum, 2 mM of glutamine and 25 mM of Hepes). This suspension is distributed on six-well cell culture plates (1 ml/well). The cells are pre-incubated for 30 minutes with the test substances in different final concentrations and subsequently stimulated to release TNFα by the addition of anti-IgE (7.2 μg/mL). The maximum release into the culture medium takes place after about 18 hours. During this period, the cells are incubated at 37° C. and 5% carbon dioxide. The culture medium (supernatant) is recovered by centrifuging (five minutes at 4000 rpm) and kept at −70° C. until the cytokin is determined. The TNFα in the supernatant is determined with so-called sandwich ELISAs (basic material Pharmingen), with which cytokin concentrations ranging from 30 to 1000 pg/mL can be determined.\nCells, not stimulated with anti IgE, hardly produce any TNFα; on the other hand, stimulated cells secrete large amounts of TNFα, which can be reduced, for example, by PDE 4 inhibitors as a function of the dose. From the percentage inhibition (TNFα release by the cells, stimulated with anti IgE=100%) of the substances tested at different concentrations, the IC50 (concentration at 50% inhibition) is calculated."}, "[2]": {"test_system": "Lewis Rats", "assay": "Inhibition of the lipopolysaccharide (LPS)-induced lung neutrophilia", "type": "in vivo, rat", "conditions": "1 mg/kg p.o., 2 h before LPS provocation; BAL 6 h after provocation", "procedure": "The inhibition of pulmonary neutrophil infiltration by the inventive substances is tested on male Lewis Rats (250–350 g). On the day of the experiments, the animals are placed individually in open 1 L Plexiglas boxes, which are connected to a head-nose exposure device. The animals are exposed to an aerosol of a lipopolysaccharide suspension (100 μg LPS/mL of 0.1% hydroxylamine solution) in PBS (LPS provocation). The LPS/hydroxylamine aerosol is nebulized by a nebulizer (Bird Micronebulizer, Palm Springs Calif., USA), which is operated with compressed air (0.2 MPa). The exposure time is 40 minutes, normal controls being nebulized also for 40 minutes with an aerosol of 0.1% hydroxylamine solution in PBS.\nSix hours after the LPS provocation, there is a maximum, massive migration of neutrophil granulocytes into the lungs of the animals. At this time, the animals are anesthetized with an excess of ethyl urethane (1.5 g/kg of body weight i.p.) and a bronchoalveolar lavage (BAL) with 3×4 mL of Hank's balance solution is carried out. The total cell count and the number of neutrophil granulocytes of the pooled BAL liquid are subsequently determined with an automatic cell differentiation instrument (Bayer Diagnostics Technicon HIE). For each animal, the neutrophiles (NEUTRO) in the BAL are calculated in millions/animal: NEUTRO/μl×BAL recovery (mL)=NEUTRO/animal.\nFor each test, 2 control groups were also run (nebulization with 0.1% hydroxylamine solution in PBS and nebulization with 100 μg LPS/mL of 0.1% hydroxylamine solution in PBS).\nThe percentage inhibition of the neutrophilia of the experimental group, treated with substance, was calculated according to the following formula: {((LPSC−SC)−(LPSD−SC))/(LPSC−SC)}×100%=% inhibition SC=vehicle-treated control group challenged with 0.1% hydroxylamine solution; LPSC=vehicle-treated control group challenged with LPS (100 μg/mL 0.1% hydroxylamine solution); LPSD=substance-treated experimental group challenged with LPS (100 μg/mL 0.1% hydroxylamine solution) […]"}}, "data": [{"smiles": "CC(C)Cn1cc(C(=O)C(=O)Nc2c(Cl)cncc2Cl)c2cccnc21", "note": "[Example 27]", "values": [{"measurement": "inhibition at 1 µM", "setting": "[1]; concentration 1.0 μmole/L", "result": 91, "unit": "%"}, {"measurement": "Inhibition of neutrophilia (table titled Inhibition of Eosinophilia)", "setting": "[2]", "result": 52, "unit": "%"}]}, {"smiles": "O=C(Nc1c(Cl)cncc1Cl)C(=O)c1cn(Cc2ccc(F)cc2)c2ncccc12", "note": "[Example 14]", "values": [{"measurement": "inhibition at 0.3 µM", "setting": "[1]; concentration 0.3 μmole/L", "result": 92, "unit": "%"}, {"measurement": "Inhibition of neutrophilia (table titled Inhibition of Eosinophilia)", "setting": "[2]", "result": 80, "unit": "%"}]}]}
